Assay [1] relates to female Aedes aegypti. Nature of the assay: Flight tunnel mosquito bioassay. The assay is classed as in vivo. Particulars: for fed (mean of triplicates) / probed (mean of triplicates): paired with control; for feeding attraction, in words: three different concentrations. On the procedure: Mosquitoes: Aedes aegypti (Liverpool) were reared in an insectary using standard rearing procedures. Approximately 50 larvae were reared in plastic cups (13×7×7.5 cm) at 27±1° C., and were fed ground up fish pellets. Adults were contained in plastic cartons covered by nylon screening and were fed using cotton pads soaked in a 10% glucose solution. Prior to blood feeding, 20 adult females, approximately 6 to 8 days old, were aspirated out of the rearing cartons and placed in to a stock cage (20×20×20 cm). Flight Tunnel Mosquito Bioassay: The assay system consists of a six well reservoir placed at the upwind end of a flight tunnel ([…]). Temperature and humidity of the flight tunnel were maintained at rearing conditions as described above. Air was constantly pushed through the flight tunnel at a wind speed of 35 ft/min. The four center wells of the six well reservoir were utilized in these bioassays. One of the 3 cm×4 cm wells contained 6 ml of citrate-phosphate-dextrose-adenine (CPDA) solution and three wells contained 6 ml of CPDA solution supplemented with adenosine triphosphate (ATP) (Sigma Chemical Co., St. Louis, Mo.). A constant-temperature water circulator warmed the reservoir to 38° C. A collagen membrane (Devro, Sandy Run, S.C.) was placed over the wells and secured to the reservoir with a light coat of high-vacuum grease (Dow Corning Corp., Midland, Mich.). The membranes were replaced after each replicate observation and additional substrate was added as needed. The reservoir and CPDA solution was used for one replicate. Twenty mosquitoes were aspirated into a cylindrical release canister (20.5 mm×7 mm) containing a mesh screen on one end and a damper on the opposite end (Precision Plastics, Inc., Beltsville, Md.). Mosquitoes were allowed to acclimate in the canister for ten minutes and then were utilized in bioassays. The canister was placed downwind of the reservoir in the flight tunnel. Human breath was introduced in a plume into the tunnel for one minute prior to opening of the release canister. Mosquitoes were then released into the flight tunnel where the number of mosquitoes biting (proboscis inserted through the membrane) within each cell during the 10-min exposure was recorded. The solution in each well consisted of either CPDA in deionized water or one of the three experimental solutions, 10^−2M, 10^−3 M, or 10^−4 M ATP with CPDA, each marked with a randomly assigned food dye color (Betty Crocker). The position of each colored solution in the reservoir was also randomized. Mosquitoes were used once in a test and then aspirated for determination of engorgement. Several attractant candidates were compared one on one with each other, and with CO2 in the flight tunnel to evaluate efficacy.

Assay [2] concerns female Aedes aegypti. Description: K&D module high-throughput feeding assay. The assay is classed as in vivo. As to conditions: Deet standard (4.54 nmol/μl); five females/cell. On the procedure: Highthrouhput Feeding Assay: The K&D module was developed at USDA for evaluating feeding deterrence and toxicity of candidate topical repellents against hemophagus arthropod vectors (Klun, J. A., and M. Debboun, J. Med. Entomol., 37: 177-181 (2000)). In the present study the K&D module was used as a highthrouhput screening tool to evaluate response of Ae. aegypti to attractant\feeding stimuli.
In vitro bioassays were conducted as described by Klun et. al., 2000. […] The three treatments were randomly assigned to consecutive cells in 2,6-cell reservoirs connected in series to a single water-bath pump; thus, 4 replicates could be tested/run.
Tests were performed in an Air Science USA hood, with an air movement velocity of approx. 110-120 ft./min., temperature of 25-27° C., and RH of 15-25%. A six-celled reservoir was connected to and heated by a constant-temperature (38° C.) water circulator (Lauda E100, Wobser GMGH and Co., Konigshofell, Germany).
Prior to each test, the upper surface of each reservoir was coated with a thin layer of high-vacuum silicone grease (Dow Corning Corp., Midland, Mich.), and the cells then filled (approx. 6 ml. capacity) or topped-off with the following: (1) expired human red blood cells suspended in citrate-phosphate-dextrose-adenine (CPDA) solution, not more than 1 month past expiration date, and to which 110 mg ATP/35 ml. blood-CPDA had been added on the day of testing; or (2) CPDA+ATP×10^−3, usually made up or diluted to 10^−3 ATP on the day of testing.
The filled cells were then covered with an Edicol collagen membrane strip (Devro, Sandy Run, S.C.), and then with a just-treated (110 μl of 4.54 nmol/μl treatment or control solution) organdy cloth strip (G Street Fabrics, Rockville, Md.).
Mosquitoes used in the tests were either Aedes aegypti (Liverpool) or Aedes albopictus (Asian Tiger mosquitoes (ATMs)). Ae. aegypti and Ae. albopictus were originally obtained from colonies at the Walter Reed Army Institute of Research (WRAIR), Silver Spring, Md., and were maintained in colonies at the Beltsville Agricultural Research Center, USDA, ARS, Beltsville, Md. The larvae were reared (Gerber, E. J., et al., Manual for mosquito rearing and experimental techniques, Am. Mosq. Control Assoc. Bull. 5 (revised), AMCA, Inc., Lake Charles, La. (1994)) by feeding larvae ground tropical fish pellets (Hikari Cichlid Gold Fish Food, Kamihata Fish Ind. Ltd., Himeji, Japan, www.hikari.info). Adults were held at 12:12 h (light:dark) photoperiod at 26° C. and 50% RH, and fed with a cotton pad moistened with 10% aqueous sucrose solution. For both species, adult mosquitoes used in the tests were between 5-10 days old, and were kept on water pads only for 24 hrs. prior to testing. Ae. aegypti used in a given test session were all loaded into K&D modules at one time, with five adult females/cell, and tested within I-2 hrs.
K&D modules containing five adult females/cell were placed over a Teflon separator atop each reservoir; the sliding floors opened allowing access to the treated organdy cloth and membrane-covered cell, and the number of mosquitoes biting (proboscis inserted through the cloth) and/or observed to be engorged within each cell at the end of a 3-5 min. exposure period was recorded. Mosquitoes were used only once in a test, and then frozen and discarded.
Only tests in which three or more females fed in the control cell were analyzed, as lower feeding rates are indicative of substandard feeding readiness of that group of mosquitoes.
Feeding/probing responses observed on control, standard, and experimental compound-treated cells were compared using an R-code statistical analysis (Chauhan, K. R., et al., Journal of Medical Entomology, 42: 643-646 (2005)).

For a further assay, the system named is mosquitoes. Particulars: compared with matching control traps baited with CO2; cited from earlier work.
Setting [3] is: CO2 (dry ice) + air paired with 0.1% Okoumal.
Where [4] appears, read: CO2 (dry ice) + air paired with 0.1% cyclopentanone.
[5] abbreviates: CO2 (dry ice) + air paired with 1% Okoumal.
Where [6] appears, read: CO2 (dry ice) + air paired with 1% cyclopentanone.
[7] abbreviates: CO2 (dry ice) + air paired with air.
The mark [8] stands for this setting: 0.1% concentration, paired with CO2 (dry ice) + air.
Setting [9] is: 1% concentration, paired with CO2 (dry ice) + air.

On to `O=C=O` [CO2 (dry ice), Carbon dioxide, reference compound], for which the mean fed turned out to be 3 with female Aedes aegypti [1] (setting [3]); 2.8 with female Aedes aegypti [1] (setting [4]); 2 in the assay on female Aedes aegypti [1] (setting [5]); 2.1 in the assay with female Aedes aegypti [1] (setting [6]); 1.8 in the assay on female Aedes aegypti [1] (setting [7]). For the same compound, the mean probed is 3.7 with female Aedes aegypti [1] (setting [3]); 3.1 with female Aedes aegypti [1] (setting [4]); 2.2 in the assay with female Aedes aegypti [1] (setting [5]); 2.3 in the assay on female Aedes aegypti [1] (setting [6]); 2.1 in the assay on female Aedes aegypti [1] (setting [7]).
Consider `C1CCC2(C1)OCCO2` [Compound I-90], for which the figures for the “fed (mean of triplicates)” value in the assay with female Aedes aegypti [1] (0.10% concentration), with female Aedes aegypti [1] (1.00% concentration) and with female Aedes aegypti [1] (5% concentration) were 2.7, 4 and 3, respectively. Moreover, the “probed (mean of triplicates)” value with female Aedes aegypti [1] (0.10% concentration) is reported as 5.7; in the assay with female Aedes aegypti [1] (1.00% concentration), 8.3; in the assay on female Aedes aegypti [1] (5% concentration), 8.7. The “feeding attraction, in words” value in the assay on female Aedes aegypti [1] was “consistent feeding attraction”.
With `CC1COC2(CCCC2)O1` (centres unmarked) [Compound I-95], in the assay with female Aedes aegypti [1] (1.00% concentration), the “fed (mean of triplicates)” value is 3.3 and the “probed (mean of triplicates)” value was 12. Further, in the assay on female Aedes aegypti [1] (5% concentration), the “fed (mean of triplicates)” value was 3.3 and the “probed (mean of triplicates)” value is given as 8.3.
Consider `CC1COC2(CCCCC2)O1` (centres unmarked) [Compound I-96], for which the results for the “fed (mean of triplicates)” value in the assay on female Aedes aegypti [1] (0.10% concentration), in the assay with female Aedes aegypti [1] (1.00% concentration) and in the assay with female Aedes aegypti [1] (5% concentration) were 3, 2.7 and 2.7, respectively. Further, the entries for the “probed (mean of triplicates)” value with female Aedes aegypti [1] (0.10% concentration), in the assay on female Aedes aegypti [1] (1.00% concentration) and in the assay on female Aedes aegypti [1] (5% concentration) were 6.3, 8.3 and 12.7, respectively. Besides, the “feeding attraction, in words” value in the assay with female Aedes aegypti [1] is “consistent feeding attraction”.
`COC1(OC)CCCC1` [Compound I-152]: in the assay on female Aedes aegypti [1] (1.00% concentration), the “fed (mean of triplicates)” value is 0.7 and the “probed (mean of triplicates)” value is 1.3. Further, in the assay on female Aedes aegypti [1] (5% concentration), the “fed (mean of triplicates)” value is listed as 1 and the “probed (mean of triplicates)” value is listed as 1.7.
For `COC1(OC)CCCCC1` [Compound I-182], the “fed (mean of triplicates)” value with female Aedes aegypti [1] (1.00% concentration) was 2.7; with female Aedes aegypti [1] (5% concentration) it was 2. Further, the “probed (mean of triplicates)” value in the assay with female Aedes aegypti [1] (1.00% concentration) is listed as 5.7; in the assay on female Aedes aegypti [1] (5% concentration), 12.3.
As for `CCN(CC)C(=O)c1cccc(C)c1` [Deet, reference compound], in the assay on female Aedes aegypti [2], the mean fed worked out at 0.1 and the mean probed was determined as 0.1.
Turning to `O=C1CCCCC1` [cyclohexanone, reference compound], in the assay on female Aedes aegypti [1] (1.00% concentration), the “fed (mean of triplicates)” value came to 0.3 and the “probed (mean of triplicates)” value is on record as 0.7. In the assay with female Aedes aegypti [1] (5% concentration), the “fed (mean of triplicates)” value came out at 1.7 and the “probed (mean of triplicates)” value is reported as 3.7.
As to `O=C1CCCC1` [cyclopentanone, reference compound], the figures for the mean fed in the assay with female Aedes aegypti [1] (setting [8]) and in the assay with female Aedes aegypti [1] (setting [9]) were 2.6 and 2.1, respectively. Moreover, the mean probed is 2.2 with female Aedes aegypti [1] (setting [8]) and 2.8 with female Aedes aegypti [1] (setting [9]). Moreover, the figures for the “fed (mean of triplicates)” value in the assay with female Aedes aegypti [1] (0.10% concentration), with female Aedes aegypti [1] (1.00% concentration) and in the assay on female Aedes aegypti [1] (5% concentration) were 3, 2 and 1, respectively. Besides, the “probed (mean of triplicates)” value in the assay with female Aedes aegypti [1] (0.10% concentration) turned out to be 7; in the assay with female Aedes aegypti [1] (1.00% concentration), 5.7; in the assay with female Aedes aegypti [1] (5% concentration), 1.7. In the assay with mosquitoes, the “attractiveness of baited traps, in words” value is listed as “equivalent to that of matching control traps baited with CO2”.

Source of the values: patent US10952434B2, “Compositions and methods for attracting insects” (The United States of America, as Represented by the …, priority 2016, dated 2021).
